Measured values: patent US9763957B2, “Autotaxin inhibitors” (Novartis AG, priority 2013, dated 2017)

These compounds were tested against Recombinant human ATX (Homo sapiens (Human), UniProt Q13822) (assay: ATX inhibition assay (choline release, Amplex Red fluorescence)). Settings: ATX 10 nM, LPC 18:1 10 μM, 37° C., 20 min pre-incubation; mean of n≧2.
Type: biochemical
Description: Reagents—LPC (oleoyl (18:1)) was purchased from Avanti Polar Lipids (Alabaster, Ala.) and solubilized in methanol to 20 mM. Amplex Red was obtained from Invitrogen Life Technologies (Paisley, UK) and dissolved in DMSO to 10 mM. Choline oxidase and horseradish peroxidase (HRP) were obtained from Sigma Aldrich (Dorset, UK) and dissolved in HBSS to 20 U/ml and 200 U/ml respectively. All reagents were stored at −20° C. in single use aliquots. All experimental measurements were performed in assay buffer made up immediately prior to use (HBSS, 0.01% BSA essentially fatty acid free).
PerkinElmer EnVision (Fluorescence Intensity/Absorbance Monochromator) or Tecan Infinite 200 PRO series plate reader was used to detect change in fluorescent intensity.
Assessing ATX inhibition—ATX activity was determined by measurement of released choline in reactions containing ATX (10 nM), choline oxidase (0.1 U/ml), HRP (100 U/ml), amplex red (50 μM) and LPC 18:1 (10 μM). Compounds of the invention were prepared as 10 point serial dilutions from 1 μM in duplicate and pre-incubated with ATX at 37° C. for 20 minutes prior to the addition of remaining reagents. The liberated choline was measured from changes in fluorescence intensity (λex 530 nm, λem 590 nm) of the product resurofin at 37° C. every 2 minutes over a 40-minute period. ATX activity was measured as a slope of the linear portion of the progress curve, typically between 14 to 24 minutes.
Data analysis—Slope data was exported to Graphpad prism (Graphpad software, San Diego, Calif.) where data was fitted to equation 1. Y=Bottom+(Top-Bottom)/(1+10^((Log IC50−X)*HillSlope)) Equation 1: […]

| Compound | IC50 [nM] |
| --- | --- |
| Cc1nnn(Cc2cc(Cl)ccc2/C=C/C(=O)N2CCC(c3nnc(CC4CCOCC4)o3)CC2)n1 [Example 110, (E)-3-(4-Chloro-2-((5-methyl-2H-tetrazol-2-yl)methyl)phenyl)-1-(4-(5-((tetrahydro-2H-pyran-4-yl)methyl)-1,3,4-oxadiazol-2-yl)piperidin-1-yl)prop-2-en-1-one] | 5.2 |
| COc1ccc(CN(C)C2CCN(C(=O)/C=C/c3ccc(C(F)(F)F)cc3Cn3nnc(C)n3)CC2)cc1 [Example 119, (E)-1-(4-((4-Methoxybenzyl)(methyl)amino)piperidin-1-yl)-3-(2-((5-methyl-2H-tetrazol-2-yl)methyl)-4-(trifluoromethyl)phenyl)prop-2-en-1-one] | 47 |
| Cc1nnn(Cc2cccc(F)c2/C=C/C(=O)N2CCC(Cc3nnc(C)o3)CC2)n1 [Example 44, (E)-3-(2-Fluoro-6-((5-methyl-2H-tetrazol-2-yl)methyl)phenyl)-1-(4-((5-methyl-1,3,4-oxadiazol-2-yl)methyl)piperidin-1-yl)prop-2-en-1-one] | 535 |
| Cc1noc(C2CCCCN2C(=O)/C=C/c2ccc(C(F)(F)F)cc2Cn2nnc(C)n2)n1 (single isomer, unassigned) [Example 5b, (R,E)-1-(2-(3-methyl-1,2,4-oxadiazol-5-yl)piperidin-1-yl)-3-(2-((5-methyl-2H-tetrazol-2-yl)methyl)-4-(trifluoromethyl)phenyl)prop-2-en-1-one or (S,E)-1-(2-(3-methyl-1,2,4-oxadiazol-5-yl)piperidin-1-yl)-3-(2-((5-methyl-2H-tetrazol-2-yl)methyl)-4-(trifluoromethyl)phenyl)prop-2-en-1-one] | 120 |
| Cc1nnn(Cc2cc(Cl)ccc2/C=C/C(=O)N2CCN(c3ncccc3C#N)CC2)n1 [Example 49.28, (E)-2-(4-(3-(4-Chloro-2-((5-methyl-2H-tetrazol-2-yl)methyl)phenyl)acryloyl)piperazin-1-yl)nicotinonitrile] | 10 |
| Cc1nnc(CC2CCN(C(=O)/C=C/c3ccc(Cl)cc3Cn3ncnn3)CC2)o1 [Example 77, (E)-3-(2-((2H-Tetrazol-2-yl)methyl)-4-chlorophenyl)-1-(4-((5-methyl-1,3,4-oxadiazol-2-yl)methyl)piperidin-1-yl)prop-2-en-1-one] | 1990 |
| Cc1nnn(Cc2cc(C(F)(F)F)ccc2CCC(=O)N2CCC(c3nnc(C)o3)CC2)n1 [Example 40, 1-(4-(5-Methyl-1,3,4-oxadiazol-2-yl)piperidin-1-yl)-3-(2-((5-methyl-2H-tetrazol-2-yl)methyl)-4-(trifluoromethyl)phenyl)propan-1-one] | 42 |
| COc1ccc(/C=C/C(=O)N2CCC(Cc3nnc(C)o3)CC2)c(Cn2nnc(C)n2)c1 [Example 83, (E)-3-(4-Methoxy-2-((5-methyl-2H-tetrazol-2-yl)methyl)phenyl)-1-(4-((5-methyl-1,3,4-oxadiazol-2-yl)methyl)piperidin-1-yl)prop-2-en-1-one] | 846 |
| Cc1cnc(Cc2cc(Cl)ccc2/C=C/C(=O)N2CCC(Cc3nnc(C)o3)CC2)o1 [Example 45, (E)-3-(4-Chloro-2-((5-methyloxazol-2-yl)methyl)phenyl)-1-(4-((5-methyl-1,3,4-oxadiazol-2-yl)methyl)piperidin-1-yl)prop-2-en-1-one] | 644 |
| Cc1nnn(Cc2c(F)cccc2/C=C/C(=O)N2CCC(Cc3nnc(C)o3)CC2)n1 [Example 78, (E)-3-(3-Fluoro-2-((5-methyl-2H-tetrazol-2-yl)methyl)phenyl)-1-(4-((5-methyl-1,3,4-oxadiazol-2-yl)methyl)piperidin-1-yl)prop-2-en-1-one] | 1460 |
| Cc1nnn(Cc2cc(C(F)(F)F)ccc2/C=C/C(=O)N2CCN(CC(=O)OC(C)(C)C)C[C@H]2C)n1 [Example 65, (R,E)-tert-Butyl 2-(3-methyl-4-(3-(2-((5-methyl-2H-tetrazol-2-yl)methyl)-4-(trifluoromethyl)phenyl)acryloyl)piperazin-1-yl)acetate] | 5.5 |
| Cc1nnn(Cc2cc(Cl)ccc2/C=C/C(=O)N2CCN(Cc3cc(-c4ccccc4)nn3C)CC2)n1 [Example 140.6, (E)-3-(4-Chloro-2-((5-methyl-2H-tetrazol-2-yl)methyl)phenyl)-1-(4-((1-methyl-3-phenyl-1H-pyrazol-5-yl)methyl)piperazin-1-yl)prop-2-en-1-one] | 42 |

The remaining lines, values ahead:

| IC50 [nM] | Compound |
| --- | --- |
| 22 | Cc1nnn(Cc2cc(C(F)(F)F)ccc2/C=C/C(=O)N2CCC(N3CCCC3=O)CC2)n1 [Example 126, (E)-1-(1-(3-(2-((5-Methyl-2H-tetrazol-2-yl)methyl)-4-(trifluoromethyl)phenyl)acryloyl)piperidin-4-yl)pyrrolidin-2-one] |
| 32 | COC(=O)C1CCCCN1C(=O)/C=C/c1ccc(Cl)cc1Cn1nnc(C)n1 (stereo not drawn) [Example 29, (E)-Methyl 1-(3-(4-Chloro-2-((5-methyl-2H-tetrazol-2-yl)methyl)phenyl)acryloyl) piperidine-2-carboxylate] |
| 25 | COCC1CCN(C(=O)/C=C/c2ccc(C(F)(F)F)cc2Cn2nnc(C)n2)CC1 [Example 99, (E)-1-(4-(Methoxymethyl)piperidin-1-yl)-3-(2-((5-methyl-2H-tetrazol-2-yl)methyl)-4-(trifluoromethyl)phenyl)prop-2-en-1-one] |
| 3.1 | Cc1nnn(Cc2cc(Cl)ccc2/C=C/C(=O)N2CCC(NC(=O)CCCc3c[nH]nn3)CC2)n1 [Example 151, (E)-N-(1-(3-(4-Chloro-2-((5-methyl-2H-tetrazol-2-yl)methyl)phenyl)acryloyl)piperidin-4-yl)-4-(1H-1,2,3-triazol-4-yl)butanamide] |
| 327 | Cc1nnn(Cc2cc(Cl)ccc2/C=C/C(=O)N2CCC(Oc3ccc(C(F)(F)F)cn3)CC2)n1 [Example 135, (E)-3-(4-Chloro-2-((5-methyl-2H-tetrazol-2-yl)methyl)phenyl)-1-(4-((5-(trifluoromethyl)pyridin-2-yl)oxy)piperidin-1-yl)prop-2-en-1-one] |
| 5.9 | CCOC(=O)C1CCN(C(=O)/C=C/c2ccc(Cl)cc2Cn2nnc(C)n2)CC1 [Example 49.9, (E)-ethyl 1-(3-(4-Chloro-2-((5-methyl-2H-tetrazol-2-yl)methyl)phenyl)acryloyl)piperidine-4-carboxylate] |
| 4.8 | Cc1nnn(Cc2cc(C(F)(F)F)ccc2/C=C/C(=O)N2CCC(c3nnc(C4CC4)o3)CC2)n1 [Example 86, (E)-1-(4-(5-Cyclopropyl-1,3,4-oxadiazol-2-yl)piperidin-1-yl)-3-(2-((5-methyl-2H-tetrazol-2-yl)methyl)-4-(trifluoromethyl)phenyl)prop-2-en-1-one] |
| 49 | Cc1nnn(Cc2cc(Cl)ccc2/C=C/C(=O)N2CCC(C(F)(F)F)CC2)n1 [Example 49.12, (E)-3-(4-Chloro-2-((5-methyl-2H-tetrazol-2-yl)methyl)phenyl)-1-(4-(trifluoromethyl)piperidin-1-yl)prop-2-en-1-one] |
| 23 | Cc1nnn(Cc2cc(C(F)(F)F)ccc2/C=C/C(=O)N2CCC(N3CCCCC3=O)CC2)n1 [Example 97, (E)-1′-(3-(2-((5-Methyl-2H-tetrazol-2-yl)methyl)-4-(trifluoromethyl)phenyl)acryloyl)-[1,4′-bipiperidin]-2-one] |
| 129 | Cc1nnn(Cc2cc(Cl)ccc2/C=C/C(=O)N2CCC(N3CCNC3=O)CC2)n1 [Example 49.3, (E)-1-(1-(3-(4-Chloro-2-((5-methyl-2H-tetrazol-2-yl)methyl)phenyl)acryloyl)piperidin-4-yl)imidazolidin-2-one] |
| 16 | Cc1nnn(Cc2cc(Cl)ccc2/C=C/C(=O)N2CCC(Cn3nnc(C)n3)CC2)n1 [Example 109, (E)-3-(4-Chloro-2-((5-methyl-2H-tetrazol-2-yl)methyl)phenyl)-1-(4-((5-methyl-2H-tetrazol-2-yl)methyl)piperidin-1-yl)prop-2-en-1-one] |
| 151 | Cc1nnn(Cc2cc(Cl)ccc2/C=C/C(=O)N2CCCC(O)C2)n1 (stereo not drawn) [Example 49.7, (E)-3-(4-Chloro-2-((5-methyl-2H-tetrazol-2-yl)methyl)phenyl)-1-(3-hydroxypiperidin-1-yl)prop-2-en-1-one] |
| 3.9 | Cc1nnn(Cc2cc(Cl)ccc2/C=C/C(=O)N2CCC(c3nnc(C(C)C)o3)CC2)n1 [Example 100, (E)-3-(4-Chloro-2-((5-methyl-2H-tetrazol-2-yl)methyl)phenyl)-1-(4-(5-isopropyl-1,3,4-oxadiazol-2-yl)piperidin-1-yl)prop-2-en-1-one] |
| 31 | Cc1nnn(Cc2cc(Cl)ccc2/C=C/C(=O)N2CCC(c3noc(C)n3)CC2)n1 [Example 19, (E)-3-(4-Chloro-2-((5-methyl-2H-tetrazol-2-yl)methyl)phenyl)-1-(4-(5-methyl-1,2,4-oxadiazol-3-yl)piperidin-1-yl)prop-2-en-1-one] |
| 60 | Cc1nnn(Cc2cc(Cl)ccc2/C=C/C(=O)N2CCC(Cc3nnc(C)o3)CC2)n1 [Example 127, (E)-3-(4-Chloro-2-((5-methyl-2H-tetrazol-2-yl)methyl)phenyl)-1-(4-((5-methyl-1,3,4-oxadiazol-2-yl)methyl)piperidin-1-yl)prop-2-en-1-one] |
